Molecular target: T1, Human M4 receptors (Homo sapiens, UniProt P08173)
T1 construct: expressed in transfected cells; host or cells: HEK293 cells with Promega GloSensor cAMP technology, stably expressing hM4
T1 sequence (P08173 1-479): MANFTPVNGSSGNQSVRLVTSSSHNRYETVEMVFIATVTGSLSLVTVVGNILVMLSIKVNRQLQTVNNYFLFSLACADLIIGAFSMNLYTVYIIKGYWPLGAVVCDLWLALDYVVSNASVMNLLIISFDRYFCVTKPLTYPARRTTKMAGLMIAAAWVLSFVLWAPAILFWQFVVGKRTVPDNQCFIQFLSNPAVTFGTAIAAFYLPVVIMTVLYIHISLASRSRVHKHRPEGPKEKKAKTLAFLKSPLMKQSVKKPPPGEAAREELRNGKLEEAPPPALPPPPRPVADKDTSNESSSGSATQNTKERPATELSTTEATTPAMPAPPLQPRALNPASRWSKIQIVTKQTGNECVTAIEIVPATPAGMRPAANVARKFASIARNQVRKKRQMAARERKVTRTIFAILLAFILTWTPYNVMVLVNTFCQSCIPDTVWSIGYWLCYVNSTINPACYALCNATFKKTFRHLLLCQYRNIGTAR
Experiment: M4 PAM cAMP assay (GloSensor)
Assay type: cell-based
Details: for Emax: HEK293, read-out: M4 glosensor EC50 Mean Asymptote Maximum (%); for EC50: HEK293 GloSensor cells expressing hM4, with EC20 acetylcholine and isoproterenol, geometric mean of 2-4 determinations unless otherwise indicated
Procedure: The M4 PAM binding affinity for the compounds of the present invention was determined utilizing the following biological assay(s):
The M4 cAMP assay was designed to determine the potency and efficacy of muscarinic positive allosteric modulators (PAMs). Human M4 receptors were stably expressed in Human embryonic kidney (HEK293) cells expressed with the Promega GloSensor™ cAMP technology.
HEK293 GloSensor cells expressing hM4 cells were cultured in growth media containing DMEM with 10% FBS, 1% Penicillin/Streptomycin, 500 μg/mL G418, 200 μg/mL Hygomycin B, and 1% Glutamax. […] Plates were incubated at 37 degrees C. and 5% CO2 for use after 24 hours.
Compound Preparation for Agonist Screen:
Each compound was tested at 10 concentrations in duplicate per experiment. Compound plates are spotted with 0.2 μL/well agonist at 400 times the final assay concentration. Positive and negative controls for the compound alone agonist response was 10 μM acetylcholine (Sigma #A2661) and DMSO, respectively. EC20 of acetylcholine was also used to define PAM activities.
Promega GloSensor™ reagent (Promega #E1291) had previously been aliquotted. […] Stock solution was mixed. Culture media in cell plates was discarded, then replaced with 40 μL/well pre-warmed equilibration media, then incubated in the dark at room temperature for 2 hours. During the incubation, stimulation media containing agonist and EC20 acetylcholine was prepared. […] Compounds are now 5 times the final assay concentration. The plate was mixed using a plate agitator. At the end of the 2 hour GloSensor™ incubation, add 10 μL of the CO2-independent media containing agonist, EC20 acetylcholine and isoproterenol to the cell plate. Cell plate was then incubated for 10 minutes at room temperature, and then read using an EnVision plate reader (Perkin Elmer).
Data was exported from the EnVision plate reader. The percent effect for each well was determined using the mean values for the positive and negative controls on each plate for each read, specifically 100*(compound−negative control)/(positive control−negative control). Dose response curves were fitted to the compound percent effect data using a 4-parameter logistic fit model. Data was reported as EC50 and Emax, with the Emax as the maximum asymptote of the fitted dose response curve.

Row | Structure (SMILES) | Emax [%] | EC50 [nM]
1 | Cc1cc(C)c2c(n1)CN(C(=O)CC1CN(c3ccc(C4CC4)cc3)C1)C2 [Example 72, 2-[1-(4-cyclopropylphenyl)azetidin-3-yl]-1-(2,4-dimethyl-5,7-dihydro-6H-pyrrolo[3,4-b]pyridin-6-yl)ethanone] | 90.6 | 537
2 | Cc1cc(C)c2c(n1)CN(C(=O)CC1CN(c3ccc(C(=O)N(C)C)cc3)C1)C2 [Example 70, 4-{3-[2-(2,4-dimethyl-5,7-dihydro-6H-pyrrolo[3,4-b]pyridin-6-yl)-2-oxoethyl]azetidin-1-yl}-N,N-dimethylbenzamide] | 95 | 184
3 | Cc1cc(C)c2c(n1)CN(C(=O)C[C@H]1C[C@@H]1c1ccc3cncnc3c1)C2 (racemic) [Example 76, 1-(2,4-dimethyl-5,7-dihydro-6H-pyrrolo[3,4-b]pyridin-6-yl)-2-[trans-2-(quinazolin-7-yl)cyclopropyl]ethanone] | 45 | 1400
4 | COc1ccc(C#N)cc1N1CC(CC(=O)N2Cc3nc(C)cc(C)c3C2)C1 [Example 69, 3-{3-[2-(2,4-dimethyl-5,7-dihydro-6H-pyrrolo[3,4-b]pyridin-6-yl)-2-oxoethyl]azetidin-1-yl}-4-methoxybenzonitrile] | 41.5 | 1360
5 | Cc1ccc([C@@H]2C[C@H]2CC(=O)N2Cc3nc(C)cc(C)c3C2)cn1 [Example 16, 1-(2,4-Dimethyl-5,7-dihydro-6H-pyrrolo[3,4-b]pyridin-6-yl)-2-[(1S,2R)-2-(6-methylpyridin-3-yl)cyclopropyl]ethanone] | – | > 10000
6 | Cc1ccc([C@H]2C[C@@H]2CC(=O)N2Cc3nc(C(F)F)cc(C)c3C2)cn1 [Example 18, 1-[2-(difluoromethyl)-4-methyl-5,7-dihydro-6H-pyrrolo[3,4-b]pyridin-6-yl]-2-[(1R,2S)-2-(6-methylpyridin-3-yl)cyclopropyl]ethanone] | 89 | 37.7
7 | COCc1cc(C)c2c(n1)CN(C(=O)CC1CN(c3ccnc(C(F)(F)F)c3)C1)C2 [Example 7, 1-[2-(methoxymethyl)-4-methyl-5,7-dihydro-6H-pyrrolo[3,4-b]pyridin-6-yl]-2-{1-[2-(trifluoromethyl)pyridin-4-yl]azetidin-3-yl}ethanone] | 99.8 | 17.4

The remaining lines, values ahead:

Row | Emax [%] | EC50 [nM] | Structure (SMILES)
8 | 112 | 16.8 | Cc1nc2c(c(C)c1Cl)CN(C(=O)CC1CN(c3nncs3)C1)C2 [Example 44, 1-(3-chloro-2,4-dimethyl-5,7-dihydro-6H-pyrrolo[3,4-b]pyridin-6-yl)-2-[1-(1,3,4-thiadiazol-2-yl)azetidin-3-yl]ethanone]
9 | 86.5 | 17.2 | Cc1cc(CO)nc2c1CN(C(=O)CC1CN(c3cccnc3)C1)C2 [Example 9, 1-[2-(Hydroxymethyl)-4-methyl-5,7-dihydro-6H-pyrrolo[3,4-b]pyridin-6-yl]-2-[1-(pyridin-3-yl)azetidin-3-yl]ethanone]
10 | 86.6 | 23.9 | COc1cc(C)c2c(n1)CN(C(=O)CC1CN(c3cccnc3)C1)C2 [Example 21, 1-(2-methoxy-4-methyl-5,7-dihydro-6H-pyrrolo[3,4-b]pyridin-6-yl)-2-[1-(pyridin-3-yl)azetidin-3-yl]ethanone]
11 | 98.6 | 18.5 | Cc1nc2c(c(C)c1Cl)CN(C(=O)OC1CN(c3ncns3)C1)C2 [Example 67, 1-(1,2,4-thiadiazol-5-yl)azetidin-3-yl 3-chloro-2,4-dimethyl-5,7-dihydro-6H-pyrrolo[3,4-b]pyridine-6-carboxylate]
12 | 102 | 4.75 | Cc1nc2c(c(C)c1Cl)CN(C(=O)C[C@@H]1C[C@H]1c1cncnc1)C2 (single isomer, unassigned) [Example 51, 1-(3-chloro-2,4-dimethyl-5,7-dihydro-6H-pyrrolo[3,4-b]pyridin-6-yl)-2-[trans-2-(pyrimidin-5-yl)cyclopropyl]ethanone]
13 | 109 | 11 | Cc1c(Cl)c(OC(F)F)nc2c1CN(C(=O)CC1CN(c3cncnc3)C1)C2 [Example 32, 1-[3-chloro-2-(difluoromethoxy)-4-methyl-5,7-dihydro-6H-pyrrolo[3,4-b]pyridin-6-yl]-2-[1-(pyrimidin-5-yl)azetidin-3-yl]ethanone]
14 | 103 | 30.3 | Cc1cc(C)c2c(n1)CN(C(=O)CC1CN(c3ccnnc3)C1)C2 [Example 30, 1-(2,4-dimethyl-5,7-dihydro-6H-pyrrolo[3,4-b]pyridin-6-yl)-2-[1-(pyridazin-4-yl)azetidin-3-yl]ethanone]
15 | 96.4 | < 1.39 | Cc1nc2c(c(C)c1Cl)CN(C(=O)CC1CN(c3ccncn3)C1)C2 [Example 39, 1-(3-chloro-2,4-dimethyl-5,7-dihydro-6H-pyrrolo[3,4-b]pyridin-6-yl)-2-[1-(pyrimidin-4-yl)azetidin-3-yl]ethanone]

From patent US11905284B2, “5,7-dihydro-pyrrolo-pyridine derivatives” (PFIZER INC., priority 2016, dated 2024)
